# How the values were obtained:
# Type in all cases: in vivo
# AMPK-eNOS pathway = assay: Mechanism of improving endothelial function (Western Blotting, total nitric oxide synthase activity in serum); conditions: ApoE−/− mice
# Experimental: (§1) After 1 week of adaptive feeding, the animals were randomly divided into 7 groups according to body weight: normal control group, model control group A769662 (30 mg/kg) administration group, metformin (260 mg/kg) administration group, IMM-H007 low, medium, and high administration groups (50, 100, 200 mg/kg), 8 in each group, and were given a high-fat diet (78.6% basal diet, 10% lard, 1.0% cholesterol, 10% egg yolk powder, and 0.4% bile salt), and simultaneously administered intragastrically at a dose of 0.1 ml/10 g body weight, and were continuously administered and fed for 8 weeks to establish an atherosclerosis model.
# The expression levels of AMPK, pAMPK, peNOS, eNOS, Caveolin-1 proteins were analyzed and measured by Western Blotting to determine the total nitric oxide synthase activity in serum.
# ApoE−/− mice [1] = assay: Blood lipid levels in high-fat-fed ApoE−/− mice; conditions: 200 mg/kg, 8 weeks, high-fat diet
# Experimental: as §1
# (1) Effect of IMM-H007 on Blood Lipid Levels in ApoE−/− Mice: Total Cholesterol (TC), Triglyceride (TG), Low-Density Lipoprotein Cholesterol (LDL), High-Density Lipoprotein Cholesterol (HDL), and Free Fatty Acid (FFA)
# Operated according to kit instructions
# ApoE−/− mice [2] = assay: Plaque area in ApoE−/− mice (oil red O staining of aorta and aortic root); conditions: for plaque area, Overall length of aorta: in % (unit assumed)
# Experimental: After 1 week of adaptive feeding, the animals were randomly divided into 7 groups according to body weight: normal control group, model control group A769662 (30 mg/kg) administration group, metformin (260 mg/kg) administration group, IMM-H007 low, medium, and high administration groups (50, 100, 200 mg/kg), 8 in each group, and were given a high-fat diet (78.6% basal diet, 10% lard, 1.0% cholesterol, 10% egg yolk powder, and 0.4% bile salt), and simultaneously administered intragastrically at a dose of 0.1 ml/10 g body weight, […] model.
# The aortic root was stained with oil red O and the overall length of the aorta was stained with oil red O. The pathological images were analyzed by Photoshop, Image 1, and Image-Pro Plus softwares. The pathological grading data were statistically analyzed using Chi-square test.
# mesenteric arterioles = assay: Microvascular endothelial function in Ob/Ob obese mice (mesenteric arterioles, Ach / SNP relaxation)
# Experimental: PSS and KPSS solutions were configured according to the instructions and used at the same time of the day. The PSS solution was taken out before the start of the experiment and pre-oxygenated for about 20 min. The ApoE−/− mice, which were fed with high-fat and simultaneously administered for 10 weeks, were anesthetized with pentobarbital sodium. The mice were supine and fixed. The abdominal cavity was opened along the median line. The mesenteric vascular bed was isolated and placed in the pre-oxygenated 20-minute PSS buffer. Under a stereomicroscope, a third-order mesenteric artery with a length of about 3 mm was carefully isolated. Firstly, the blood vessel was fixed to a P1 glass cannula and the coil was tightened. Note: the proximal end should be connected to the P1 end, and the P2 end vessel should be fixed and the coil should be tightened. The Chamber was placed on a objective table of the microscope and the data connection between Chamber and Interface was checked. The bath cover was covered and the oxygen was introduced, to exhaust air in the pipeline. The blood vessel image was found under the microscope and then the microscope was turned to camera mode. (The knob on the side of the eyepiece was rotated to graph.) MyoVIEW software was opened. The Camera window Capture was clicked to display the blood vessel image. The equilibration of blood vessels slowly rose from 10 mmHg to 60 mmHg, and each step was 300 s. After the equilibration procedure was completed, the solution in the bath was drained. Blood vessels were stimulated (10 ml) for 2 min using a 37° C. pre-heated KPSS solution, and changes in vasoconstriction were observed, and the blood vessels were then eluted using the PSS solution to baseline. The blood vessels were equilibrated at 60 mmHg 37° C. for 45 minutes, during which time the fluid was replaced every 20 minutes. The experiment was started: observing the vasodilatory response induced by 10^−10 to 10^−5 M Ach after pre-contraction with 2 μM phenylephrine, to evaluate the effect of the drugs on the vascular endothelial function. At the end of the experiment, the fresh 37° C. pre-heated PSS buffer was replaced for equilibration for 30 min, and the 10^−10M to 10^−3 M sodium nitroprusside were given to induce vasodilatory response after pre-contraction with 2 μM phenylephrine, to evaluate the effect of the drugs on vascular smooth muscle function. LD1 was the diameter of blood vessel after relaxation by administration of different concentrations of ACh or sodium nitroprusside, LD2 was the diameter of blood vessels after pre-contraction with phenylephrine, and LD3 represented the maximum diastolic diameter of blood vessel without any stimulant.
# The relaxation response to Ach and sodium nitroprusside after pre-contraction with phenylephrine was expressed as the percentage increase in the vascular diameter: % Relaxation=(LD1−LD2)/(LD3−LD2)×100.
# […] The changes of food intake and body weight were recorded, and routine biochemical indicators such as blood lipids and blood glucose, etc. were measured. After 9 weeks, 3 animals were taken from each group and the mesenteric arterioles were taken for measurement of vascular endothelial function in the same manner as in Example 2.
# Ob/Ob obese mice = assay: Biochemical indexes in Ob/Ob obese mice; conditions: 400 mg/kg
# Experimental: After 1 week of adaptive feeding, animals were randomly divided into two groups according to body weight: model control group, and IMM-H007 group (400 mg/kg), 10 in each group, and were given normal feed and simultaneously administered intragastrically at a dose of 0.1 ml/10 g body weight, and were continuously administered and fed for 9 weeks. The changes of food intake and body weight were recorded, and routine biochemical indicators such as blood lipids and blood glucose, etc. were measured. After 9 weeks, 3 animals were taken from each group and the mesenteric arterioles were taken for measurement of vascular endothelial function in the same manner as in Example 2.
# Detection Indicators (1) Routine Biochemical Indicators and (2) Vascular Endothelial Function
smiles,measurement,setting,value
"CC(=O)OCC1OC(n2cnc3c(Nc4cccc(O)c4)ncnc32)C(OC(C)=O)C1OC(C)=O (stereo not shown) [IMM-H007, 2′,3,′ 5′-triacetyl-N^6(3-hydroxyphenyl)adenosine]",NO production,AMPK-eNOS pathway,increases
same,AMPK-eNOS pathway,AMPK-eNOS pathway; Western Blotting,activation
same,activity of nitric oxide synthase,AMPK-eNOS pathway; serum,improves
same,High-density lipoprotein (HDL-C),ApoE−/− mice [1],1.64 ± 1.15
same,Triglyceride (TG),ApoE−/− mice [1],1.48 ± 0.34
same,"plaque area, Frozen section of root of aorta %",ApoE−/− mice [2]; 50 mg/kg,3.66 ± 2.65 %
same,"plaque area, Overall length of aorta",ApoE−/− mice [2]; 50 mg/kg,6.18 ± 3.57
same,"plaque area, Frozen section of root of aorta %",ApoE−/− mice [2]; 100 mg/kg,2.36 ± 0.43 %
same,"plaque area, Overall length of aorta",ApoE−/− mice [2]; 100 mg/kg,3.93 ± 2.40
same,"plaque area, Frozen section of root of aorta %",ApoE−/− mice [2]; 200 mg/kg,2.97 ± 0.92 %
same,"plaque area, Overall length of aorta",ApoE−/− mice [2]; 200 mg/kg,3.67 ± 1.69
same,"lipid accumulation at the plaque site, section staining of the root of aorta",ApoE−/− mice [2]; high-fat diet for 10 weeks,a decrease
same,plaque accumulation in the arch of aorta and overall length of aorta,ApoE−/− mice [2]; high-fat diet for 10 weeks,significantly reduce
same,microvascular endothelial function,"mesenteric arterioles; 400 mg/kg, 9 weeks",improve
same,acetylcholine endothelium-dependent relaxation of microvascular,"mesenteric arterioles; 400 mg/kg, 1 × 10^−5 M Ach",93.6 ± 1.1 %
same,acetylcholine endothelium-dependent relaxation of microvascular,"mesenteric arterioles; 400 mg/kg, 1 × 10^−6 M Ach",82.1 ± 9.3 %
same,acetylcholine endothelium-dependent relaxation of microvascular,"mesenteric arterioles; 400 mg/kg, 1 × 10^−7 M Ach",71.7 ± 13.5 %
same,acetylcholine endothelium-dependent relaxation of microvascular,"mesenteric arterioles; 400 mg/kg, 1 × 10^−8 M Ach",57.6 ± 15.8 %
same,acetylcholine endothelium-dependent relaxation of microvascular,"mesenteric arterioles; 400 mg/kg, 1 × 10^−9 M Ach",32.3 ± 18.9%
same,acetylcholine endothelium-dependent relaxation of microvascular,"mesenteric arterioles; 400 mg/kg, 1 × 10^−10 M Ach",0.96 ± 0.85%
same,sodium nitroprusside endothelium-independent relaxation of microvascular,mesenteric arterioles; 1 × 10^−3 M SNP,95.0 ± 3.8%
same,sodium nitroprusside endothelium-independent relaxation of microvascular,mesenteric arterioles; 1 × 10^−4 M SNP,94.3 ± 2.3%
same,sodium nitroprusside endothelium-independent relaxation of microvascular,mesenteric arterioles; 1 × 10^−5 M SNP,91.4 ± 2.5%
same,sodium nitroprusside endothelium-independent relaxation of microvascular,mesenteric arterioles; 1 × 10^−6 M SNP,80.8 ± 6.9%
same,sodium nitroprusside endothelium-independent relaxation of microvascular,mesenteric arterioles; 1 × 10^−7 M SNP,68.3 ± 5.1%
same,sodium nitroprusside endothelium-independent relaxation of microvascular,mesenteric arterioles; 1 × 10^−8 M SNP,58.9 ± 3.2%
same,sodium nitroprusside endothelium-independent relaxation of microvascular,mesenteric arterioles; 1 × 10^−9 M SNP,43.5 ± 4.1%
same,sodium nitroprusside endothelium-independent relaxation of microvascular,mesenteric arterioles; 1 × 10^−10 M SNP,16.9 ± 6.3%
same,Fasting blood glucose,Ob/Ob obese mice; 4 week,6.69 ± 0.12 mmol/L
same,Fasting insulin,Ob/Ob obese mice; 4 week,1.60 ± 0.18 ng/mL
same,Free fatty acid,Ob/Ob obese mice; 4 week,1.06 ± 0.03 mEq/l
same,Ingestion,Ob/Ob obese mice; 4 week,5.48 ± 0.05 g/day
same,Low-density lipoprotein,Ob/Ob obese mice; 4 week,1.16 ± 0.04 mmol/L
same,Total cholesterol,Ob/Ob obese mice; 4 week,3.57 ± 0.07 mmol/L
same,Triglyceride,Ob/Ob obese mice; 4 week,0.69 ± 0.03 mmol/L
same,Body weight,Ob/Ob obese mice; 9 week,51.18 ± 0.67 g
same,Fasting blood glucose,Ob/Ob obese mice; 9 week,9.98 ± 0.51 mmol/L
same,Fasting insulin,Ob/Ob obese mice; 9 week,6.07 ± 0.48 ng/mL
same,Free fatty acid,Ob/Ob obese mice; 9 week,0.44 ± 0.07 mEq/l
same,Ingestion,Ob/Ob obese mice; 9 week,5.47 ± 0.08 g/day
same,Low-density lipoprotein,Ob/Ob obese mice; 9 week,1.70 ± 0.28 mmol/L
same,Total cholesterol,Ob/Ob obese mice; 9 week,4.13 ± 0.67 mmol/L
same,Triglyceride,Ob/Ob obese mice; 9 week,0.52 ± 0.09 mmol/L

# — patent publication US11324768B2, “Applications of triacetyl-3-hydroxyl phenyl adenosine in treating vascular inflammations or improving vascular endothelium functions” (priority 2016, dated 2022)
